The record followed here is patent US8822462B2, “Subunit selective NMDA receptor potentiators for the treatment of neurological conditions” (Emory University, priority 2009, dated 2014).

For orientation: IC50 means the midpoint of a concentration-inhibition curve. For orientation: EC50 means the concentration at which the effect is half-maximal.

One assay addresses NR1/NR2D (Homo sapiens, UniProt O15399+Q05586). As to the kind of experiment: Two electrode voltage clamp, Xenopus laevis oocytes expressing NR1/NR2D. Particulars: for activity at 100 µM: read-out: 2D percent effect at the maximum tested concentration, at 100 μM; for Emax: read-out: 2D Max. On the technique in general: Two-electrode voltage clamp holds a large cell at a set potential and records current.

A further assay deals with T1, NR1/NR2C (Homo sapiens, UniProt Q05586+Q14957).
T1 construct: expressed in transfected cells; host or cells: Xenopus laevis oocytes
T1 sequence (Q14957 20-1233, species assumed, other chains not shown): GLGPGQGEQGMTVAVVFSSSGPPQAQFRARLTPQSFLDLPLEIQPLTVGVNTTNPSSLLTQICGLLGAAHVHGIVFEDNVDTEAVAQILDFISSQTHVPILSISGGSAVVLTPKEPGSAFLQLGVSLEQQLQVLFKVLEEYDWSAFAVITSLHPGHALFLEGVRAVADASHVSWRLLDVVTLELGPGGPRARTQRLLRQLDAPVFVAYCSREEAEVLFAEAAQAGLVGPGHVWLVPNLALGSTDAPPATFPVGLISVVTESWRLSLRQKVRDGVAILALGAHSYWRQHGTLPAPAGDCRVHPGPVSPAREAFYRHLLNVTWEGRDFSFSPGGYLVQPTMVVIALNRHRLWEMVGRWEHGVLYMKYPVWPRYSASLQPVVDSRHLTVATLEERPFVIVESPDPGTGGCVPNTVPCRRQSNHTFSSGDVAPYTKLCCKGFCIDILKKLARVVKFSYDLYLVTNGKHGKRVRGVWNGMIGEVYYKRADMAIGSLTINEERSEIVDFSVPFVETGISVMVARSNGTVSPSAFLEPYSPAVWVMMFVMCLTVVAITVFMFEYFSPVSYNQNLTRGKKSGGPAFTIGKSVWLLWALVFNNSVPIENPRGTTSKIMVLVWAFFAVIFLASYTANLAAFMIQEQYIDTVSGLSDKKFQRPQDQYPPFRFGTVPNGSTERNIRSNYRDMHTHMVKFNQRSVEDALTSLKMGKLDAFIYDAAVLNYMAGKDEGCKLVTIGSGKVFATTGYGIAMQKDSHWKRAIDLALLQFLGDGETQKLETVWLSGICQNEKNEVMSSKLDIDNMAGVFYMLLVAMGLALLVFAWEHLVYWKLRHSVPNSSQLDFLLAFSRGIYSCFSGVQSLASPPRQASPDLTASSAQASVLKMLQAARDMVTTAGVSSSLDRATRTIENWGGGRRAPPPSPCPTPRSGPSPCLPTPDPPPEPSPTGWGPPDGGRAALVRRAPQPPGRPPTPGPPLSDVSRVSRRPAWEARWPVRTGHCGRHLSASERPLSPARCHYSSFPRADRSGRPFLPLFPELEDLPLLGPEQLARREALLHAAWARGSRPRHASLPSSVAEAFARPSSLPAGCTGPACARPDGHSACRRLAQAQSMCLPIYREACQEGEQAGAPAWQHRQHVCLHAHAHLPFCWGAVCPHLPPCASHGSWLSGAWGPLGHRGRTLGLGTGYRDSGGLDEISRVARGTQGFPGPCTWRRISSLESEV
As to the kind of experiment: Two electrode voltage clamp, Xenopus laevis oocytes expressing NR1/NR2C. The class given is cell-based. Particulars: for IC50: fitted to composite concentration-effect data, read-out: 2C IC50; for Emax: maximal effect of fit, read-out: 2C Max. The text has this: Values are mean+SEM (n=14-20). […] C is the closed level; broken line is the open level.
The Hill slope at both receptors for all analogues was greater than 1, consistent with a cooperative effect of binding at two sites.
(§1) In the table above, potency is expressed as fitted EC50 value to average composite concentration-effect data constructed from current responses recorded under two electrode voltage clamp from Xenopus laevis oocytes expressing either NR1/NR2A, B, C, or D, GluR1, or GluR6. No effect means less than 20% change in response amplitude at 30 μM of drug.

Another assay addresses T2, NR1/NR2A (Homo sapiens, UniProt Q12879).
T2 construct: expressed in transfected cells; host or cells: Xenopus laevis oocytes
As to the kind of experiment: Two electrode voltage clamp, Xenopus laevis oocytes expressing NR1/NR2A. The class given is cell-based. Particulars: read-out: 2A percent effect at the maximum tested concentration. On the procedure:
as §1

The next assay deals with T3, NR1/NR2B (Homo sapiens, UniProt Q05586+Q13224).
T3 construct: expressed in transfected cells; host or cells: Xenopus laevis oocytes
As to the kind of experiment: Two electrode voltage clamp, Xenopus laevis oocytes expressing NR1/NR2B. The class given is cell-based. The settings on record: at 100 μM; read-out: 2B percent effect at the maximum tested concentration. On the procedure: as §1

Setting [1] is: read-out: 2C percent effect at the maximum tested concentration.

T2 sequence (Q12879 23-1464, species assumed, other chains not shown): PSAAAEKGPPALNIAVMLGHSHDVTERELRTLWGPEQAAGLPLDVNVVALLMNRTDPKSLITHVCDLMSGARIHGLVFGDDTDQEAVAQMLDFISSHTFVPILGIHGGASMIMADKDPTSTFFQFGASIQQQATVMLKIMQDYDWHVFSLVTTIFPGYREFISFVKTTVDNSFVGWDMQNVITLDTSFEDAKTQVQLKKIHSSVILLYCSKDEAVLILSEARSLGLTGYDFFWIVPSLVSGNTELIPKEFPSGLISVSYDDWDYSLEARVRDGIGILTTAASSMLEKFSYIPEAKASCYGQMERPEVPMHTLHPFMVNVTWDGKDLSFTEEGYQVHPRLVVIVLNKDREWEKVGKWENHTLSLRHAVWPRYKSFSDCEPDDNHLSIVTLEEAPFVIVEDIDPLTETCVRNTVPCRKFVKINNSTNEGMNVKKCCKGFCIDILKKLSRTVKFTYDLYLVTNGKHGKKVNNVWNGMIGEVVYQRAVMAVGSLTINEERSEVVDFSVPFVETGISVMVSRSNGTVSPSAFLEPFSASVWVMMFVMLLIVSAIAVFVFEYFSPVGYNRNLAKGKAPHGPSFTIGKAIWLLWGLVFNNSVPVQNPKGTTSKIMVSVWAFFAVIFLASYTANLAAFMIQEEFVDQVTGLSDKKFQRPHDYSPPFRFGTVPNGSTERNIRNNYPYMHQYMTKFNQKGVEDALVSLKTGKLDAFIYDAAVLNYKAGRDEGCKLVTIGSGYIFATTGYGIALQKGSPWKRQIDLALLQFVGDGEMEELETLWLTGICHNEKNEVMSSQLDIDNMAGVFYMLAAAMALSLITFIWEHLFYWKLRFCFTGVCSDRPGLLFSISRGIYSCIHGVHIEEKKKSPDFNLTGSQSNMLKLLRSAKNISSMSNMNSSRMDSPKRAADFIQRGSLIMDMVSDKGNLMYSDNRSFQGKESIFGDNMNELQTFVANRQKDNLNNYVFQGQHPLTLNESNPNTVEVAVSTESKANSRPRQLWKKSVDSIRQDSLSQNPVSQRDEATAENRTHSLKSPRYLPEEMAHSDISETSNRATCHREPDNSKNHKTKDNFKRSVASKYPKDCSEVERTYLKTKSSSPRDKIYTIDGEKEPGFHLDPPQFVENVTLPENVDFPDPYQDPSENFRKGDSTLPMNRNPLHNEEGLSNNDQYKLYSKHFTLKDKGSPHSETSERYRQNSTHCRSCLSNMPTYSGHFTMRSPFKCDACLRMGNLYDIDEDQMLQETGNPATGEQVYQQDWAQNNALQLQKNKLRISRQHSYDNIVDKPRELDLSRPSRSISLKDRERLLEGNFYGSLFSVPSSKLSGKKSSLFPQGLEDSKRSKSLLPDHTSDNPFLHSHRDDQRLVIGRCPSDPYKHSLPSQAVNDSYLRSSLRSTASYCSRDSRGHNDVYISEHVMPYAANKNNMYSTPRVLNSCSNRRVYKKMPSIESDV
Chain of NR1/NR2D (O15399 28-1336, species assumed, other chains not shown): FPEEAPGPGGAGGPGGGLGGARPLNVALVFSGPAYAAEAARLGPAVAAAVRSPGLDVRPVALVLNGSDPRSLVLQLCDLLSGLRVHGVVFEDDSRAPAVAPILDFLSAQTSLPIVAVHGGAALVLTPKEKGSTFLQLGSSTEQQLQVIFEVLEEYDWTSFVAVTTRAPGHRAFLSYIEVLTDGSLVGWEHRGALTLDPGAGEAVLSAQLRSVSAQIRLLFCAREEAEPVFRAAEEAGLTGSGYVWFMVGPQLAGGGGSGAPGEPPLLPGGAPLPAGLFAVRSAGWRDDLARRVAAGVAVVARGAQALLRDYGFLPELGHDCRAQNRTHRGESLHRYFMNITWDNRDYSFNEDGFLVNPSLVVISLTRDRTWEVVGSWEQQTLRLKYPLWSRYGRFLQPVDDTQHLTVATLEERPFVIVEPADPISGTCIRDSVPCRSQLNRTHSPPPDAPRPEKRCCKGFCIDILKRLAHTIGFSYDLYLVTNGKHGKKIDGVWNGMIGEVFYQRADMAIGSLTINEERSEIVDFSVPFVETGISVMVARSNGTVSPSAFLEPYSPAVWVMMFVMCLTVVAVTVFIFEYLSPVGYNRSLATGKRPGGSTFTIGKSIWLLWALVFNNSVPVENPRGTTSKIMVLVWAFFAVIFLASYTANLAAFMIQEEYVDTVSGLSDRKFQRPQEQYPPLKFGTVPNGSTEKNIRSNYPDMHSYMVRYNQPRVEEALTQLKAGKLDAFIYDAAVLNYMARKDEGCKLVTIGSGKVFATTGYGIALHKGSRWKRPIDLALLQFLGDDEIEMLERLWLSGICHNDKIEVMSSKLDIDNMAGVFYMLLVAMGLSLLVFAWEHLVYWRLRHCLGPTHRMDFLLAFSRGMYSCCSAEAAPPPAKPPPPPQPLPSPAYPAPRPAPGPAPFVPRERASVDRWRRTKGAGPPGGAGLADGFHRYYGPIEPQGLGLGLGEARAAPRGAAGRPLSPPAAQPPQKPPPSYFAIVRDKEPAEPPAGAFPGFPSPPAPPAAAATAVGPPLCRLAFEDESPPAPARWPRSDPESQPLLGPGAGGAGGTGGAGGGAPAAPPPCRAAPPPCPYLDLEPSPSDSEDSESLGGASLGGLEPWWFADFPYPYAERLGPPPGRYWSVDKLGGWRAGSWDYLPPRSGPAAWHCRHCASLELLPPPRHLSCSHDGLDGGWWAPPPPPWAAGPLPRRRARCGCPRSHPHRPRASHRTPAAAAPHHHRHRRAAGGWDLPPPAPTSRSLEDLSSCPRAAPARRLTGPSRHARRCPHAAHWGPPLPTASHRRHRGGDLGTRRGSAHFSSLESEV

`COc1ccc(OCC2c3cc(OC)c(OC)cc3CCN2C(=S)Nc2cccc(F)c2)cc1` (centres unmarked) [compound 1414]: the activity at 100 µM worked out at 93% at NR1/NR2D and 99% at NR1/NR2C (setting [1]).

Take `CC1CCc2c(sc(NC(=O)c3ccc(C(C)(C)C)cc3)c2C(=O)O)C1` (centres unmarked) [compound 1481]: half-maximal inhibition against NR1/NR2D (IC50) was put at 21 µM. In addition, the Emax on NR1/NR2D was determined as 124%. The values for the activity at 100 µM on NR1/NR2A, at NR1/NR2B and at NR1/NR2C (setting [1]) were 113%, 119% and 97%, respectively.

Take `COc1ccc(OCC2c3cc(OC)c(OC)cc3CCN2C(=O)c2cccc(C(F)(F)F)c2)cc1` (centres unmarked) [compound 1426]: the IC50 on NR1/NR2D and on NR1/NR2C was 2 µM in each case. Besides, the results for the Emax at NR1/NR2D and on NR1/NR2C were 204% and 171%, respectively. Moreover, the activity at 100 µM came out at 88% on NR1/NR2A and 86% at NR1/NR2B.

As to `COc1ccc(OCC2c3cc(OC)c(OC)cc3CCN2C(=O)c2ccc(Cl)cc2)cc1` (centres unmarked) [compound 1368], the IC50 against NR1/NR2D is 5 µM; at NR1/NR2C, 4 µM. Further, the Emax on NR1/NR2D turned out to be 114%; on NR1/NR2C it was 135%. Further, the activity at 100 µM was determined as 105% on NR1/NR2A and 78% at NR1/NR2B.

Consider `CC(C)(C)c1ccc(C(=O)NC2=C(C(=O)O)C3CCCCCC3S2)cc1` (centres unmarked) [compound 1482], for which the half-maximal inhibitory concentration (IC50) against NR1/NR2D amounted to 16 µM; on NR1/NR2C, 19 µM. Besides, the results for the Emax at NR1/NR2D and at NR1/NR2C were 170% and 127%, respectively. Also, the activity at 100 µM on NR1/NR2A came to 97%; at NR1/NR2B, 116%.

As for `Cc1ccc(CSc2nccn2C(=O)c2ccc(C(C)(C)C)cc2)cc1` [compound 1403], the activity at 100 µM was 86% on NR1/NR2D, 88% on NR1/NR2A, 94% on NR1/NR2B and 104% at NR1/NR2C (setting [1]).

Regarding `Cc1cc(NC(=O)c2ccc(C(C)(C)C)cc2)no1` [compound 1401], the activity at 100 µM at NR1/NR2D worked out at 86%; at NR1/NR2A, 105%; on NR1/NR2B it was 87%; at NR1/NR2C (setting [1]), 97%.

With `COc1cc2c(cc1OC)C(COc1ccc(SC)cc1)N(C(=O)c1cccc(Cl)c1)CC2` (centres unmarked) [1180-13], the activity at 100 µM on NR1/NR2D was 105%; at NR1/NR2A, 112%; on NR1/NR2B, 67%; on NR1/NR2C (setting [1]), 97%.

`COc1ccc(NC(O)C2CN(C(C)C)C(=O)c3cc(OC)c(OC)cc32)c(OC)c1` (centres unmarked) [compound 1440]: the activity at 100 µM on NR1/NR2D is 82%; at NR1/NR2A, 123%; at NR1/NR2B, 90%; on NR1/NR2C (setting [1]) it was 71%.

`COc1ccc(OCC2c3cc(OC)c(OC)cc3CCN2C(=O)c2cccc(C)c2)cc1` (centres unmarked) [compound 1425]: the IC50 at NR1/NR2D and on NR1/NR2C was 5 µM throughout. Further, the Emax on NR1/NR2D came to 172%; on NR1/NR2C it was 208%. Moreover, the values for the activity at 100 µM at NR1/NR2A and on NR1/NR2B were 74% and 94%, respectively.

`COc1ccc(OCC2c3cc(OC)c(OC)cc3CCN2C(=O)N2CCOCC2)cc1` (centres unmarked) [1180-23]: the activity at 100 µM at NR1/NR2D stood at 78%; at NR1/NR2A it was 140%; at NR1/NR2B it was 61%; at NR1/NR2C (setting [1]), 87%.

Take `COc1ccc(OCC2c3cc(OC)c(OC)cc3CCN2C(=O)c2ccncc2)cc1` (centres unmarked) [compound 1510]: the activity at 100 µM came to 87% at NR1/NR2D, 87% at NR1/NR2B and 90% on NR1/NR2C (setting [1]).

As for `COc1cc2c(cc1OC)C(COc1ccc(SC)cc1)N(C(=O)c1ccccc1)CC2` (centres unmarked) [1180-14], the activity at 100 µM at NR1/NR2D came to 103%; at NR1/NR2A, 115%; at NR1/NR2B, 128%; at NR1/NR2C (setting [1]), 93%.

In the case of `COC(=O)c1ccc(OCC2c3cc(OC)c(OC)cc3CCN2C(=O)c2cccc(Br)c2)cc1` (centres unmarked) [compound 1410], the results for the activity at 100 µM at NR1/NR2D and at NR1/NR2C (setting [1]) were 89% and 94%, respectively.

As for `COc1ccc(OCC2c3cc(OC)c(OC)cc3CCN2C(=O)c2ccc3c(c2)OCO3)cc1` (centres unmarked) [compound 1408], the activity at 100 µM at NR1/NR2D was determined as 88%; on NR1/NR2C (setting [1]), 95%.

On to `C=C(OC)c1ccc(OCC2c3cc(OC)c(OC)cc3CCN2C(=O)c2ccc(OC)cc2)cc1` (centres unmarked) [compound 1367], for which the activity at 100 µM on NR1/NR2D came out at 93%; on NR1/NR2C (setting [1]) it was 104%.

On to `COc1ccc(OCC2c3cc(OC)c(OC)cc3CCN2C(=O)Nc2ccccc2)cc1` (centres unmarked) [compound 1407], for which the activity at 100 µM is 88% at NR1/NR2D and 86% on NR1/NR2C (setting [1]).

`COc1cc2c(cc1OC)CN(C(=O)c1cccc(Cl)c1)CC2` [1180-29]: the values for the activity at 100 µM on NR1/NR2A, on NR1/NR2B and on NR1/NR2C (setting [1]) were 75%, 58% and 82%, respectively.

`COc1ccc(OCC2c3cc(OC)c(OC)cc3CCN2C(=O)c2ccc(Cl)c(Cl)c2)cc1` (centres unmarked) [1180-10]: on NR1/NR2D, 8 µM corresponded to half-maximal inhibition (IC50) and the Emax is 172%. On NR1/NR2C, the IC50 is 3 µM and the Emax amounted to 134%.

Take `COc1ccc(OCC2c3cc(OC)c(OC)cc3CCN2C(=O)c2ccc(OC)cc2)cc1` (centres unmarked) [compound 1364]: the figures for the activity at 100 µM on NR1/NR2D, on NR1/NR2B and at NR1/NR2C (setting [1]) were 93%, 75% and 98%, respectively.

Take `NCC(=O)O` [glycine, reference compound]: the EC50 on NR1/NR2D amounted to 0.2 µM.

Consider `COc1ccc(OCC2c3cc(OC)c(OC)cc3CCN2C(=O)c2ccccc2C)cc1` (centres unmarked) [compound 1263], for which the activity at 100 µM at NR1/NR2D worked out at 97%; on NR1/NR2C (setting [1]) it was 105%.

As for `COc1ccc(OCC2c3cc(OC)c(OC)cc3CCN2C(=S)Nc2cccc(Cl)c2)cc1` (centres unmarked) [compound 1415], the results for the activity at 100 µM on NR1/NR2D and on NR1/NR2C (setting [1]) were 87% and 99%, respectively.

`COc1ccc(OCC2c3cc(OC)c(OC)cc3CCN2C(=S)Nc2cccc(Br)c2)cc1` (centres unmarked) [compound 1416]: the activity at 100 µM on NR1/NR2D was determined as 87%; at NR1/NR2C (setting [1]), 96%.

With `COc1cc2c(cc1OC)C(CCc1ccccc1)N(C(=O)c1cccc(F)c1)CC2` (centres unmarked) [1180-1], the activity at 30 µM at NR1/NR2D (read-out: 2D percent effect at the maximum tested concentration, at 30 μM) amounted to 90%; at NR1/NR2C (at 30 μM, read-out: 2C percent effect at the maximum tested concentration), 96%. The activity at 100 µM on NR1/NR2A was 110%.

For the compound `COc1ccc(OCC2c3cc(OC)c(OC)cc3CCN2C(=S)Nc2cccc(C)c2)cc1` (centres unmarked) [compound 1413], the activity at 100 µM on NR1/NR2D is 74%; on NR1/NR2C (setting [1]), 102%.

As for `COc1ccc(OC[C@@H]2c3cc(OC)c(OC)cc3CCN2C(=O)c2cccc(Cl)c2)cc1` [1180-15], at NR1/NR2D, the midpoint of inhibition, the IC50, lay at 4 µM and the Emax came to 364%. In addition, at NR1/NR2A (at 30 μM), the activity at 30 µM stood at 128%. For the same compound, at NR1/NR2C, the IC50 turned out to be 2.4 µM and the Emax is 330%.

On to `COc1ccc(OCC2c3cc(OC)c(OC)cc3CCN2C(=O)Nc2ccc(Cl)cc2)cc1` (centres unmarked) [compound 1411], for which the results for the activity at 100 µM at NR1/NR2D and at NR1/NR2C (setting [1]) were 66% and 84%, respectively.

As for `COc1ccc(OCC2c3cc(OC)c(OC)cc3CCN2C(=O)c2ccccc2Cl)cc1` (centres unmarked) [compound 1409], the values for the activity at 100 µM on NR1/NR2D and at NR1/NR2C (setting [1]) were 82% and 76%, respectively.

With `COc1ccc(OCC2c3cc(OC)c(OC)cc3CCN2C(=S)Nc2ccccc2)cc1` (centres unmarked) [compound 1412], the figures for the activity at 100 µM on NR1/NR2D and on NR1/NR2C (setting [1]) were 79% and 93%, respectively.

Regarding `COc1ccc(OCC2c3cc(OC)c(OC)cc3CCN2S(=O)(=O)c2cccc(Cl)c2)cc1` (centres unmarked) [compound 1511], the activity at 10 µM on NR1/NR2D (read-out: 2D percent effect at the maximum tested concentration, at 10 μM) was determined as 96%; on NR1/NR2C (at 10 μM, read-out: 2C percent effect at the maximum tested concentration) it was 99%.
